Measured values reported in PubChem BioAssay AID194 (DTP/NCI, 2004).
“And” between values parts separate entries of the source, which are not always exact repeats. Identical values can stand only once. Results filed as inconclusive are left out.

Test system: BDF1 mice, B16 melanoma s.c., survival/tumor T/C
Assay: NCI In Vivo Anticancer Drug Screen. Data for tumor model B16 Melanoma (subcutaneous) in B6D2F1 (BDF1) mice
Procedure: The antitumor activity of compounds was measured in mice bearing transplantable tumors. Survival or tumor size were measured and the results are expressed as the measurement made in the treated group (T) divided by the measurement made in the vehicle treated control group (C). The tumor model used in this assay is B16 Melanoma (subcutaneous) in B6D2F1 (BDF1) mice

[1] = endpoint: median survival time, dose: 12.5 mg/kg/injection, schedule: Q01DX009 (ip), vehicle: Klucel (hydroxypropylcellulose) (HPC), higher = longer survival

Question: Which T/C (endpoint: median survival time, dose: 0.12 mg/kg/injection, schedule: Q01DX009 (ip), vehicle: saline, higher = longer survival) does the source give for `COc1cccc2c1C(=O)c1c(O)c3c(c(O)c1C2=O)C[C@@](O)(C(=O)CO)C[C@@H]3OC1CC(N)C(O)C(C)O1` (stereo partly drawn) here?
Answer: 100 % of control and 111 % of control

Question: What about the T/C (endpoint: median survival time, dose: 1.0 mg/kg/injection, schedule: Q01DX008 (ip), vehicle: saline, higher = longer survival) of the same compound?
Answer: 100 % of control

Question: And the T/C (endpoint: median survival time, dose: 1.5 mg/kg/injection, schedule: Q01DX008 (ip), vehicle: saline, higher = longer survival)?
Answer: 96 % of control

Question: Which results are given for `Cc1c(N)nc(C(CC(N)=O)NCC(N)C(N)=O)nc1C(=O)NC(C(=O)NC(C)C(O)C(C)C(=O)NC(C(=O)NCCc1nc(-c2nc(C(=O)NCCCNCCCCN)cs2)cs1)C(C)O)C(OC1OC(CO)C(O)C(O)C1OC1OC(CO)C(O)C(OC(N)=O)C1O)c1cnc[nH]1` (stereo not drawn)?
Answer: T/C (endpoint: median survival time, dose: 1.56 mg/kg/injection, schedule: Q01DX009 (ip), vehicle: water, higher = longer survival): 164 % of control; T/C (endpoint: median tumor weight (est.), dose: 1.56 mg/kg/injection, schedule: Q01DX009 (ip), vehicle: water, higher = larger tumour): 41 % of control; T/C (endpoint: median tumor weight (est.), dose: 3.12 mg/kg/injection, schedule: Q01DX009 (ip), vehicle: water, higher = larger tumour): 24 % of control; T/C (endpoint: median tumor weight (est.), dose: 6.25 mg/kg/injection, schedule: Q01DX009 (ip), vehicle: water, higher = larger tumour): 12 % of control

Question: Which T/C (endpoint: median survival time, dose: 0.1 mg/kg/injection, schedule: Q01DX010 (ip), vehicle: water, higher = longer survival) does the source give for `Cc1c(N)nc(C(CC(N)=O)NCC(N)C(N)=O)nc1C(=O)NC(C(=O)NC(C)C(O)C(C)C(=O)NC(C(=O)NCCc1nc(-c2nc(C(=O)NCCCNCCCc3ccccn3)cs2)cs1)C(C)O)C(OC1OC(CO)C(O)C(O)C1OC1OC(CO)C(O)C(OC(N)=O)C1O)c1cnc[nH]1` (stereo not drawn) here?
Answer: 101 % of control

Question: And the T/C (endpoint: median survival time, dose: 0.2 mg/kg/injection, schedule: Q01DX010 (ip), vehicle: water, higher = longer survival)?
Answer: 116 % of control and 124 % of control

Question: What about the T/C (endpoint: median survival time, dose: 0.4 mg/kg/injection, schedule: Q01DX010 (ip), vehicle: water, higher = longer survival) of the same compound?
Answer: 96 % of control and 124 % of control

Question: And the T/C (endpoint: median survival time, dose: 1.6 mg/kg/injection, schedule: Q01DX010 (ip), vehicle: water, higher = longer survival)?
Answer: 117 % of control

Question: What about the T/C (endpoint: median survival time, dose: 3.2 mg/kg/injection, schedule: Q01DX010 (ip), vehicle: water, higher = longer survival) of the same compound?
Answer: 88 % of control

Question: Which T/C (endpoint: median survival time, dose: 6.25 mg/kg/injection, schedule: Q01DX009 (ip), vehicle: Klucel (hydroxypropylcellulose) (HPC), higher = longer survival) does the source give for `CC(=O)NNC(=O)c1ccccn1` here?
Answer: 102 % of control

Question: And the T/C [1]?
Answer: 92 % of control

Question: What about the T/C (endpoint: median survival time, dose: 25.0 mg/kg/injection, schedule: Q01DX009 (ip), vehicle: Klucel (hydroxypropylcellulose) (HPC), higher = longer survival) of the same compound?
Answer: 86 % of control

Question: And the T/C (endpoint: median survival time, dose: 50.0 mg/kg/injection, schedule: Q01DX009 (ip), vehicle: Klucel (hydroxypropylcellulose) (HPC), higher = longer survival)?
Answer: 88 % of control and 98 % of control

Question: What about the T/C (endpoint: median survival time, dose: 100.0 mg/kg/injection, schedule: Q01DX009 (ip), vehicle: Klucel (hydroxypropylcellulose) (HPC), higher = longer survival) of the same compound?
Answer: 88 % of control

Question: How did the T/C (endpoint: median survival time, dose: 67.0 mg/kg/injection, schedule: Q01DX009 (ip), vehicle: water, higher = longer survival) turn out when `CNc1nc(N(C)C)nc(N(C)C)n1` was run?
Answer: 112 % of control

Question: And the T/C (endpoint: median survival time, dose: 100.0 mg/kg/injection, schedule: Q04DX003 (ip), vehicle: water, higher = longer survival)?
Answer: 96 % of control

Question: And the T/C (endpoint: median survival time, dose: 150.0 mg/kg/injection, schedule: Q04DX003 (ip), vehicle: water, higher = longer survival)?
Answer: 95 % of control

Question: What about the T/C (endpoint: median survival time, dose: 225.0 mg/kg/injection, schedule: Q04DX003 (ip), vehicle: water, higher = longer survival) of the same compound?
Answer: 90 % of control

Question: How did the T/C (endpoint: median survival time, dose: 4.0 mg/kg/injection, schedule: Q01DX009 (ip), vehicle: saline with Tween-80, higher = longer survival) turn out when `CC1=C(/C=C/C(C)=C/C=C/C(C)=C/CO)C(C)(C)CCC1` was run?
Answer: 102 % of control

Question: What about the T/C (endpoint: median survival time, dose: 8.0 mg/kg/injection, schedule: Q01DX009 (ip), vehicle: saline with Tween-80, higher = longer survival) of the same compound?
Answer: 94 % of control

Question: What about the T/C (endpoint: median survival time, dose: 16.0 mg/kg/injection, schedule: Q01DX009 (ip), vehicle: saline with Tween-80, higher = longer survival) of the same compound?
Answer: 101 % of control and 117 % of control

Question: What about the T/C (endpoint: median survival time, dose: 32.0 mg/kg/injection, schedule: Q01DX009 (ip), vehicle: saline with Tween-80, higher = longer survival) of the same compound?
Answer: 100 % of control and 102 % of control

Question: And the T/C (endpoint: median survival time, dose: 64.0 mg/kg/injection, schedule: Q01DX009 (ip), vehicle: saline with Tween-80, higher = longer survival)?
Answer: 92 % of control

Question: How did the T/C (endpoint: median survival time, dose: 50.0 mg/kg/injection, schedule: Q04DX002 (iv), vehicle: other, higher = longer survival) turn out when `COC(=O)Nc1nc2ccc(C(=O)c3cccs3)cc2[nH]1` was run?
Answer: 110 % of control

Question: What about the T/C (endpoint: median survival time, dose: 50.0 mg/kg/injection, schedule: Q05DX005 (ip), vehicle: other, higher = longer survival) of the same compound?
Answer: 104 % of control

Question: And the T/C (endpoint: median survival time, dose: 60.0 mg/kg/injection, schedule: Q05DX005 (ip), vehicle: other, higher = longer survival)?
Answer: 105 % of control

Question: What about the T/C (endpoint: median survival time, dose: 70.0 mg/kg/injection, schedule: Q05DX005 (ip), vehicle: other, higher = longer survival) of the same compound?
Answer: 103 % of control

Question: With `CS(=O)(=O)OCCCCOS(C)(=O)=O` as the compound, how does the T/C [1] read?
Answer: 88 % of control and 100 % of control

Question: What about the T/C (endpoint: median survival time, dose: 25.0 mg/kg/injection, schedule: Q01DX009 (ip), vehicle: saline with Tween-80, higher = longer survival) of the same compound?
Answer: 100 % of control

Question: And the T/C (endpoint: median survival time, dose: 50.0 mg/kg/injection, schedule: Q01DX009 (ip), vehicle: saline with Tween-80, higher = longer survival)?
Answer: 100 % of control

Question: And the T/C (endpoint: median tumor weight (est.), dose: 12.5 mg/kg/injection, schedule: Q01DX009 (ip), vehicle: saline with Tween-80, higher = larger tumour)?
Answer: 162 % of control

Question: And the T/C (endpoint: median tumor weight (est.), dose: 25.0 mg/kg/injection, schedule: Q01DX009 (ip), vehicle: Klucel (hydroxypropylcellulose) (HPC), higher = larger tumour)?
Answer: 97 % of control and 83 % of control

Question: And the T/C (endpoint: median tumor weight (est.), dose: 25.0 mg/kg/injection, schedule: Q01DX009 (ip), vehicle: saline with Tween-80, higher = larger tumour)?
Answer: 88 % of control

Question: What about the T/C (endpoint: median tumor weight (est.), dose: 50.0 mg/kg/injection, schedule: Q01DX009 (ip), vehicle: Klucel (hydroxypropylcellulose) (HPC), higher = larger tumour) of the same compound?
Answer: 61 % of control

Question: What about the T/C (endpoint: median tumor weight (est.), dose: 50.0 mg/kg/injection, schedule: Q01DX009 (ip), vehicle: saline with Tween-80, higher = larger tumour) of the same compound?
Answer: 69 % of control
